Laboratory results: ChEMBL document CHEMBL3507680, “University of Dundee, Gates Library screen for HepG2 cell viability”

Assay: Human HepG2 cell viability assay in 384 well format
Format: toxicity, cell-based
Design: dose 125 nL, time 70.5 hour; cytotoxicity at 70.5 h: concentration not given beside the values
Details: HepG2 cells, read-out: Inhibition

Row | SMILES | cytotoxicity at 70.5 h [%]
1 | Cc1csc(C2(NCC(O)COC(C)C)CCCC2)n1 (stereo not drawn) | -11.4
2 | CC1CN(C)CCN1C(=O)NCCCn1ccnc1 (stereo not drawn) | -1.11
3 | Cn1cc(C(C)(O)CNc2ccccn2)cn1 (stereo not drawn) | 2.38
4 | COCC(=O)NCCC(=O)N1CCN(S(=O)(=O)c2ccc(Br)cc2)CC1 | 13.5
5 | COCC(=O)NCCC(=O)N1CCN(S(=O)(=O)c2cccc(Br)c2)CC1 | -2.7
6 | N#Cc1cc(F)c(NCc2ccc(F)cc2)c(F)c1 | 15.5
7 | CCN(CC)C(=O)CNS(=O)(=O)c1cc(Br)ccc1F | -5.2
8 | Cc1c(C(C)NC(=O)Nc2ccccc2F)cnn1C (stereo not drawn) | -5.46
9 | Cc1cnc(C(=O)N2CC[C@@H]3CN(c4ncccn4)CCO[C@@H]3C2)cn1 | -4.8
10 | O=C(c1ccco1)N1CCc2ncc(CN3CCOCC3)n2CC1 | 18.7
11 | COc1ccc(CNC(=O)c2nc3c(s2)CCN(C(C)=O)CC3)cc1 | -11.1
12 | Cc1ccccc1C(=O)N1CCC2(CC1)CC(c1cnn(C)c1)CO2 (stereo not drawn) | -11.9
13 | Cn1cc(C2COC3(CCN(C(=O)c4cnccn4)CC3)C2)cn1 (stereo not drawn) | -12.7
14 | Cn1cc(C2COC3(CCN(C(=O)c4cccc(O)c4)CC3)C2)cn1 (stereo not drawn) | -11.7
15 | O=S(=O)(c1ccccc1)N1CCC2(CCCN2Cc2ccccc2Cl)C1 (stereo not drawn) | 22.5
16 | Cc1ccc(CN2CCn3c(CNS(C)(=O)=O)nnc3C2)s1 | 22.6
17 | CS(=O)(=O)NCc1nnc2n1CCN(Cc1ccncc1)C2 | 20.1
18 | O=S(=O)(c1ccccc1)N1CCC2(CCCN2Cc2ccc(Cl)cc2)C1 (stereo not drawn) | -7.11
19 | CS(=O)(=O)NCc1nnc2n1CCN(Cc1ccccn1)C2 | -9
20 | Cn1cc(C[C@H]2[C@H](O)CCN2Cc2ccc3c(c2)OCO3)cn1 | 6.92
21 | O=C(Nc1ccccc1)[C@H]1C[C@@H]2CN(Cc3cccnc3)C[C@H]1O2 | -5.98
22 | O=C(c1ccnnc1)N1CCN2C[C@H](OCc3ccccn3)C[C@H]2C1 | -4.04
23 | c1cncc(CN2CCCC3(COCCN(c4nccs4)C3)C2)c1 (stereo not drawn) | -5.78
24 | COc1ccc(CN2C[C@H]3C[C@H](C(=O)Nc4cccnc4)[C@@H](C2)O3)cc1 | -3.51
25 | Cn1cc(CN2CC[C@@H](O)[C@@H]2Cc2ccccc2)cn1 | -7.36

Row | SMILES | cytotoxicity at 70.5 h [%]
26 | Cc1ccc(C(=O)N2CC[C@@]3(C[C@@H](NS(C)(=O)=O)CCO3)C2)s1 | 4.89
27 | Cc1nc(C(=O)N2CC[C@@]3(C[C@H](NS(C)(=O)=O)CCO3)C2)cs1 | -7.15
28 | CC(C)CN1C(=O)CO[C@@H]2CN(C(=O)C3CCOC3)C[C@H]21 (stereo partly drawn) | 39.9
29 | COCCN1C(=O)[C@]2(CC[C@@H]3CN(S(=O)(=O)CC(C)C)C[C@@H]32)N=C1C | 13.1
30 | CCCNC(=O)c1ncn2c1CN(CC(C)C)S(=O)(=O)c1ccccc1-2 | 13.4
31 | CS(=O)(=O)N[C@@H]1CCN(Cc2cccnc2)[C@H]1Cc1cccnc1 | 13.6
32 | CC1=N[C@@]2(CC[C@@H]3CN(S(=O)(=O)CC(C)C)C[C@@H]32)C(=O)N1C | -10.5
33 | CCN1Cc2c(C(=O)NC)ncn2-c2ccccc2S1(=O)=O | -6.74
34 | Cc1nnc([C@@H]2CC[C@@H]3[C@@H](CCN3S(=O)(=O)C3CC3)O2)o1 | -14
35 | CC(C)CN1Cc2c(C(=O)NC3CC3)ncn2-c2ccccc2S1(=O)=O | -15.8
36 | Cc1nc(COC[C@H]2CC[C@H]3[C@H](CCN3C(N)=O)O2)cs1 | -1.77
37 | CC(C)CN1C(=O)CO[C@@H]2CN(C(=O)C3CCOCC3)C[C@H]21 | -4.41
38 | COc1ccc(CN2Cc3cn(C)nc3C(COCC3CC3)C2)cc1 (stereo not drawn) | -4.4
39 | Cn1cc(CN2CCCC3(CCN(C(=O)c4ccoc4)C3)C2)cn1 (stereo not drawn) | -11
40 | Cc1cccc(C(=O)N2CCn3c(CN4CCN(C)CC4)cnc3C2)n1 | -7.95
41 | COCC(=O)N1CCC2(CCCN(Cc3cnn(C)c3)C2)C1 (stereo not drawn) | -3.28
42 | Cc1occc1C(=O)N1CCC2(CC1)CC(OCc1ccccn1)CO2 (stereo not drawn) | 11.9
43 | Cc1nnc(N2CC[C@H]3C[C@@H](C(=O)N4CCCC4)O[C@H]3C2)s1 | 12.6
44 | Cc1cc(C(=O)N2CC[C@]3(C[C@@H](OCc4ccccn4)CO3)C2)c(C)o1 | 17.1
45 | Cc1cc(C(=O)N2CCn3cc(CN4CCOCC4)nc3C2)no1 | -7.09
46 | O=C(NC1CC1)N1CCc2ncc(CN3CCOCC3)n2CC1 | -16
47 | O=C(C1CCOCC1)N1CCc2ncc(CN3CCOCC3)n2CC1 | -11.5
48 | Cc1nnc(N2CC[C@H]3C[C@H](C(=O)N(C)C)O[C@@H]3C2)s1 | -7.89
49 | CNC(=O)[C@H]1C[C@@H]2CCN(c3nnc(C)s3)C[C@@H]2O1 | -8.39
50 | Cc1occc1C(=O)N1CCC[C@]2(C[C@@H](OCc3ccccn3)CO2)C1 | -9.42

Row | SMILES | cytotoxicity at 70.5 h [%]
51 | CS(=O)(=O)NCc1nnc2n1CCN(Cc1cccs1)CC2 | -4.32
52 | O=C(NC1CCCCC1)N1CCc2onc(COc3cccnc3)c2C1 | -6.55
53 | O=C(c1cccs1)N1CCCC2(COCCN(c3cccnc3)C2)C1 (stereo not drawn) | -6.3
54 | O=C(c1ccc[nH]1)N1CCc2onc(COc3cccnc3)c2C1 | -4.03
55 | Cc1ccccc1CN1C[C@@H](C(=O)N2CCCCO2)C[C@H]2OCC[C@H]21 | -7.46
56 | CS(=O)(=O)N[C@H]1CCO[C@]2(CCN(C(=O)c3ccccn3)C2)C1 | -3.91
57 | Cc1ccc(C(=O)N2C[C@@H]3OCCN(C)[C@@H]3C2)cn1 | -2.77
58 | CNC(=O)[C@H]1C[C@@H]2CCN(Cc3nccs3)C[C@H]2O1 | -6.34
59 | Fc1cccc(CNCC2OCCc3cn(CC4CCOCC4)nc32)c1 (stereo not drawn) | -5.44
60 | O=C(NCc1ccccn1)[C@H]1COC[C@H]2CN(C3CCCC3)C[C@H]21 | 40.2
61 | CN(C)C(=O)[C@H]1C[C@H]2OCC[C@H]2N(Cc2ccc3ccccc3n2)C1 | 17.2
62 | c1cnc(N2CCOCC3(CCCN(Cc4cccs4)C3)C2)nc1 (stereo not drawn) | 19.9
63 | c1cncc(N2CCOCC3(CN(Cc4cccs4)CCO3)C2)c1 (stereo not drawn) | 19.2
64 | Cn1cc(CN2CCCC3(COCCN(c4cccnc4)C3)C2)cn1 (stereo not drawn) | -6.27
65 | CC(C)CCN1C[C@H]2C[C@H](C(=O)Nc3cccnc3)[C@@H](C1)O2 | -6.02
66 | O=C([C@H]1C[C@H]2OCC[C@H]2N(Cc2ccccc2F)C1)N1CCCCO1 | -7.79
67 | O=S(=O)(c1ccccc1)N1CCC2(CCCN2Cc2cccnc2)C1 (stereo not drawn) | 10.9
68 | Cc1noc(C)c1CN1Cc2cn(C)nc2C(COCC2CC2)C1 (stereo not drawn) | 14.4
69 | CS(=O)(=O)N[C@@H]1CCN(Cc2cccnc2)[C@H]1Cc1ccccc1 | -11.7
70 | O=C(Nc1cccnc1)[C@H]1C[C@@H]2CCN(Cc3nccs3)C[C@@H]2O1 | -15.1
71 | Cc1ncccc1NC(=O)[C@@H]1C[C@@H]2CCN(Cc3cccs3)C[C@H]2O1 | -12.3
72 | CN1CCN(C2COC3(CCN(Cc4ccc(F)cc4)CC3)C2)CC1 (stereo not drawn) | -11.8
73 | Cn1cc(CN2CCCC3(CCN(C(=O)c4ccccn4)C3)C2)cn1 (stereo not drawn) | -12
